Test results published in US20260008752A1, “POLYMORPHIC FORMS OF FLORBETAPIR PRECURSOR AV-105” (ELI LILLY AND COMPANY, priority 2022, published 2026).
In brackets after ≈: the same amount, converted by molar mass.

How the values were obtained:
Format in all cases: physicochemical
[1] = Long term slurry experiments (solid form by XRPD after ~2 weeks)
Experimental: Samples of starting material were suspended in specified solvents and triturated at specified temperatures. After approximately 24 hours, suspensions were transferred into Spin-X centrifuge tubes equipped with solids 0.45-μm nylon filters and centrifuged. Solids separated were resuspended in fresh solvents and the agitation was continued for a total of 2 weeks. Solids were isolated as described above and analyzed by XRPD.
(§1) Unless otherwise specified, solids of AV-105 were composed of Form A and were agitated in specified solvents at specified temperatures. Solvents were replaced after approximately 24 hours, where possible. After ˜2 weeks, solids were separated from supernatants via centrifugation with filtration and analyzed by XRPD. Solubilities were evaluated as a single, small scale measurement via gravimetric method using supernatants separated from the solids. Organic solvents used are anhydrous. […] Approximate solvent ratios are expressed in % by volume. Temperatures and duration of experiments are approximate.

[2] = Equilibrium solubility, gravimetric, from slurry supernatants; details: thermodynamic from solid
Experimental: Measured aliquots of supernatants isolated from the solids were placed in pre-weighed TGA pans for evaporation.
as §1

[3] = Differential scanning calorimetry (heat-of-fusion rule); details: at all temperatures; forms monotropically related
Experimental: (onset) with a heat of fusion of 78.9 J/g (FIG. 4). […] This is consistent with the screen findings, where conversion of Form A into Form B has been observed in a wide temperature range, between 2-8° C. and 45° C.

Cc1ccc(S(=O)(=O)OCCOCCOCCOc2ccc(/C=C/c3ccc(N(C)C(=O)OC(C)(C)C)cc3)cn2)cc1 [AV-105]
XRPD Results/observations ([1]; ACN/water 50/50, Aw 0.90, RT, start Form A, ~2 weeks slurry): Form B | XRPD Results/observations ([1]; CPME, 2-8° C., start Form A, ~2 weeks slurry): Form B | XRPD Results/observations ([1]; CPME, RT, start Form A, ~2 weeks slurry): Form B | XRPD Results/observations ([1]; EtOAc/heptane 40/60, 2-8° C., start Form A, ~2 weeks slurry): Form B | XRPD Results/observations ([1]; EtOAc/heptane 40/60, 35° C., start Form A, ~2 weeks slurry): Form B | XRPD Results/observations ([1]; EtOAc/heptane 40/60, RT, start Form A, ~2 weeks slurry): Form B | XRPD Results/observations ([1]; EtOH, 2-8° C., with solvent replacement, start Form A): Form B | XRPD Results/observations ([1]; EtOH, 45° C. (a), starting material mixture of Form A/Form B): Yellow gel | XRPD Results/observations ([1]; EtOH, 45° C., start Form A): Yellow solution, | XRPD Results/observations ([1]; EtOH, RT, with solvent replacement (a), starting material mixture of Form A/Form B): Form B | XRPD Results/observations ([1]; EtOH, RT, with solvent replacement, start Form A): Form B | XRPD Results/observations ([1]; IPA, 45° C., start Form A): Form B | XRPD Results/observations ([1]; IPA, RT, with solvent replacement, start Form A): Form B | XRPD Results/observations ([1]; IPrOAc, 35° C., start Form A): Form B | XRPD Results/observations ([1]; IPrOAc, RT, start Form A): Form B | XRPD Results/observations ([1]; MIBK/heptane 40/60, RT, start Form A): Form B | XRPD Results/observations ([1]; MIBK, 2-8° C., start Form A): Form B | XRPD Results/observations ([1]; MIBK, 35° C., start Form A): Form B | XRPD Results/observations ([1]; MIBK, RT, start Form A): Form B | XRPD Results/observations ([1]; MTBE, RT, start Form A): Form B | XRPD Results/observations ([1]; MeOH, 2-8° C., with solvent replacement, start Form A): Form B | XRPD Results/observations ([1]; MeOH, 45° C., start Form A): Orange gel | XRPD Results/observations ([1]; MeOH, Freezer, start Form A): Form B + small | XRPD Results/observations ([1]; MeOH, RT, with solvent replacement, start Form A): Form B | XRPD Results/observations ([1]; THF/cyclohexane 30/70, 2-8° C., start Form A): Form B | XRPD Results/observations ([1]; THF/cyclohexane 30/70, RT, start Form A): Form B | XRPD Results/observations ([1]; Water, 70° C., start Form A): Orange gel after | XRPD Results/observations ([1]; Water, RT, start Form A): Form A | solubility ([2]; ACN/water 50/50 slurry supernatant, aqueous with cosolvent or surfactant or cyclodextrin, ACN/water 50/50, Aw 0.90, RT, solid Form B): 2 mg/mL (≈ 3.26 mM) | solubility ([2]; CPME slurry supernatant, 2 °C, organic solvent or mixture, CPME, 2-8° C., solid Form B): 25 mg/mL (≈ 40.8 mM) | solubility ([2]; CPME slurry supernatant, organic solvent or mixture, CPME, RT, solid Form B): 47 mg/mL (≈ 76.7 mM) | solubility ([2]; EtOAc/heptane 40/60 slurry supernatant, 2 °C, organic solvent or mixture, EtOAc/heptane 40/60, 2-8° C., solid Form B): 6 mg/mL (≈ 9.79 mM) | solubility ([2]; EtOAc/heptane 40/60 slurry supernatant, 35 °C, organic solvent or mixture, EtOAc/heptane 40/60, solid Form B): 34 mg/mL (≈ 55.5 mM) | solubility ([2]; EtOAc/heptane 40/60 slurry supernatant, organic solvent or mixture, EtOAc/heptane 40/60, RT, solid Form B): 27 mg/mL (≈ 44.1 mM) | solubility ([2]; EtOH slurry supernatant, 2 °C, organic solvent or mixture, EtOH, 2-8° C., with solvent replacement, solid Form B): 3 mg/mL (≈ 4.9 mM) | solubility ([2]; EtOH slurry supernatant, organic solvent or mixture, EtOH, RT, with solvent replacement (a), starting material mixture of Form A/Form B, solid Form B): 7 mg/mL (≈ 11.4 mM) | solubility ([2]; EtOH slurry supernatant, organic solvent or mixture, EtOH, RT, with solvent replacement, solid Form B): 7 mg/mL (≈ 11.4 mM) | solubility ([2]; IPA slurry supernatant, 45 °C, organic solvent or mixture, IPA, solid Form B): 44 mg/mL (≈ 71.8 mM) | solubility ([2]; IPA slurry supernatant, organic solvent or mixture, IPA, RT, with solvent replacement, solid Form B): 4 mg/mL (≈ 6.53 mM) | solubility ([2]; IPrOAc slurry supernatant, 35 °C, organic solvent or mixture, IPrOAc, solid Form B): 232 mg/mL (≈ 379 mM) | solubility ([2]; IPrOAc slurry supernatant, organic solvent or mixture, IPrOAc, RT, solid Form B): 93 mg/mL (≈ 152 mM) | solubility ([2]; MIBK slurry supernatant, 2 °C, organic solvent or mixture, MIBK, 2-8° C., solid Form B): 128 mg/mL (≈ 209 mM) | solubility ([2]; MIBK slurry supernatant, 35 °C, organic solvent or mixture, MIBK, solid Form B): 277 mg/mL (≈ 452 mM) | solubility ([2]; MIBK slurry supernatant, organic solvent or mixture, MIBK, RT, solid Form B): 137 mg/mL (≈ 224 mM) | solubility ([2]; MIBK/heptane 40/60 slurry supernatant, organic solvent or mixture, MIBK/heptane 40/60, RT, solid Form B): 15 mg/mL (≈ 24.5 mM) | solubility ([2]; MTBE slurry supernatant, organic solvent or mixture, MTBE, RT, solid Form B): 34 mg/mL (≈ 55.5 mM) | solubility ([2]; MeOH slurry supernatant, 2 °C, organic solvent or mixture, MeOH, 2-8° C., with solvent replacement, solid Form B): 6 mg/mL (≈ 9.79 mM) | solubility ([2]; MeOH slurry supernatant, organic solvent or mixture, MeOH, Freezer, solid Form B + small additional peaks): 5 mg/mL | solubility ([2]; MeOH slurry supernatant, organic solvent or mixture, MeOH, RT, with solvent replacement, solid Form B): 13 mg/mL (≈ 21.2 mM) | solubility ([2]; THF/cyclohexane 30/70 slurry supernatant, 2 °C, organic solvent or mixture, THF/cyclohexane 30/70, 2-8° C., solid Form B): 55 mg/mL (≈ 89.8 mM) | solubility ([2]; THF/cyclohexane 30/70 slurry supernatant, organic solvent or mixture, THF/cyclohexane 30/70, RT, solid Form B): 370 mg/mL (≈ 604 mM)

Cc1ccc(S(=O)(=O)OCCOCCOCCOc2ccc(/C=C/c3ccc(N(C)C(=O)OC(C)(C)C)cc3)cn2)cc1 [Form A]
Form change on slurrying in a variety of solvent systems ([1]; all solvent systems tested between 2-8° C. and 45° C.): conversion to Form B

Cc1ccc(S(=O)(=O)OCCOCCOCCOc2ccc(/C=C/c3ccc(N(C)C(=O)OC(C)(C)C)cc3)cn2)cc1 [Form B]
Thermodynamic stability from slurry experiments ([1]; between 2-8° C. and 45° C.): thermodynamically the more stable form | Relative thermodynamic stability from DSC (heat-of-fusion rule) [3]: more stable than Form A
